Test results from ChEMBL document CHEMBL3045312, “Projuvenoids: synthesis and biological evaluation of sulfenylated, sulfinylated, and sulfonylated carbamates” (Arch Insect Biochem Physiol, 1996).
The source made the active and inactive calls. The rule behind the calls is not given here.

Columns and labels:
[1] = test system: Pieris brassicae; experiment: Juvenile hormone mimicking activity against fifth-instar larval stage of Pieris brassicae reared on cabbage plants assessed as morphogenetic changes measured per larvae applied topically to dorsal surface of larvae measured post pupal ecdysis; assay type: functional
[2] = test system: Sitophilus oryzae; experiment: Juvenile hormone mimicking activity against adult Sitophilus oryzae (rice weevil) infested wheat kernels assessed as suppression of progeny development at 1 to 100 ppm applied through diet for 21 days measured after 9 weeks; assay type: functional, organism-based
[3] = Lipophilicity, log P of the compound; assay type: physicochemical; settings: octanol/water
[4] = test system: Pieris brassicae; experiment: Ratio of fenoxycarb ID50 to compound ID50 for fifth-instar larval stage of Pieris brassicae; assay type: functional
[5] = test system: Sitophilus oryzae; experiment: Juvenile hormone mimicking activity against adult Sitophilus oryzae (rice weevil) infested wheat kernels assessed as suppression of progeny development at 1 ppm applied through diet for 21 days measured after 9 weeks; assay type: functional, organism-based
[6] = test system: Bemisia tabaci; experiment: Juvenile hormone mimicking activity against Bemisia tabaci (sweet potato whitefly) infested cotton assessed as suppression of adult emergence at 400 g/ha applied as wettable powder through spray measured on day 12 under field conditions (reference value: 89%); assay type: functional
[7] = test system: Bemisia tabaci; experiment: Juvenile hormone mimicking activity against Bemisia tabaci (sweet potato whitefly) infested cotton assessed as suppression of nymph emergence at 100 g/ha applied as wettable powder through spray measured on day 12 under field conditions (reference value: 92%); assay type: functional
[8] = test system: Bemisia tabaci; experiment: Juvenile hormone mimicking activity against Bemisia tabaci (sweet potato whitefly) infested cotton assessed as suppression of nymph emergence at 200 g/ha applied as wettable powder through spray measured on day 12 under field conditions (reference value: 92%); assay type: functional
[9] = test system: Bemisia tabaci; experiment: Juvenile hormone mimicking activity against Bemisia tabaci (sweet potato whitefly) infested cotton assessed as suppression of adult emergence at 100 g/ha applied as wettable powder through spray measured on day 12 under field conditions (reference value: 89%); assay type: functional
[10] = test system: Bemisia tabaci; experiment: Juvenile hormone mimicking activity against Bemisia tabaci (sweet potato whitefly) infested cotton assessed as suppression of nymph emergence at 400 g/ha applied as wettable powder through spray measured on day 12 under field conditions (reference value: 92%); assay type: functional
[11] = test system: Bemisia tabaci; experiment: Juvenile hormone mimicking activity against Bemisia tabaci (sweet potato whitefly) infested cotton assessed as suppression of adult emergence at 200 g/ha applied as wettable powder through spray measured on day 12 under field conditions (reference value: 89%); assay type: functional
[12] = test system: Bemisia tabaci; experiment: Juvenile hormone mimicking activity against Bemisia tabaci (sweet potato whitefly) infested cotton assessed as suppression of nymph emergence at 200 g/ha applied as emulsifiable concentrate through spray measured on day 12 under field conditions (reference value: 92%); assay type: functional
[13] = test system: Bemisia tabaci; experiment: Juvenile hormone mimicking activity against Bemisia tabaci (sweet potato whitefly) infested cotton assessed as suppression of adult emergence at 200 g/ha applied as emulsifiable concentrate through spray measured on day 12 under field conditions (reference value: 89%); assay type: functional
[14] = test system: Bemisia tabaci; experiment: Juvenile hormone mimicking activity against Bemisia tabaci (sweet potato whitefly) infested cotton assessed as suppression of adult emergence at 100 g/ha applied as emulsifiable concentrate through spray measured on day 12 under field conditions (reference value: 89%); assay type: functional
[15] = test system: Bemisia tabaci; experiment: Juvenile hormone mimicking activity against Bemisia tabaci (sweet potato whitefly) infested cotton assessed as suppression of adult emergence at 50 g/ha applied as emulsifiable concentrate through spray measured on day 12 under field conditions (reference value: 89%); assay type: functional
[16] = test system: Bemisia tabaci; experiment: Juvenile hormone mimicking activity against Bemisia tabaci (sweet potato whitefly) infested cotton assessed as suppression of nymph emergence at 100 g/ha applied as emulsifiable concentrate through spray measured on day 12 under field conditions (reference value: 92%); assay type: functional
[17] = test system: Bemisia tabaci; experiment: Juvenile hormone mimicking activity against Bemisia tabaci (sweet potato whitefly) infested cotton assessed as suppression of nymph emergence at 50 g/ha applied as emulsifiable concentrate through spray measured on day 12 under field conditions (reference value: 92%); assay type: functional

Compound | ID50 [1] | Activity [5] | also measured
CCOC(=O)NCCOc1ccc(Oc2ccc(Cl)cc2)cc1 | 22 ng | – | –
CC(C)OC(=O)NCCOc1ccc(Oc2ccccc2)cc1 | 24 ng | – | –
COC(C)(C)CCC[C@H](C)C/C=C/C(C)=C/C(=O)OC(C)C [METHOPRENE] | 60 ng | – | Activity [2]: Active; logP [3]: 5.21
CCCCCCCCCCCCOC(=O)N(CCCC)SN(CCOc1ccc(Oc2ccccc2)cc1)C(=O)OCC | 2.8 ng | Active | Ratio [4]: 6
CCOC(=O)NCCOc1ccc(Oc2ccccc2)cc1 [PHENOXYCARB] | 21 ng | Active | Activity [6]: 20%; Activity [7]: 41%; logP [3]: 4.07; Activity [8]: 34%; Activity [9]: 43%; Activity [10]: 21%; Activity [11]: 29%
CCOC(=O)N(CCOc1ccc(Oc2ccccc2)cc1)SN(CCOc1ccc(Oc2ccccc2)cc1)C(=O)OCC | 2.8 ng | Active | –
CCOC(=O)CC(SP(=S)(OC)OC)C(=O)OCC (configuration not stated) | – | – | Activity [2]: Active
CCCCCCCCCCCCCCCCCN(SN(CCOc1ccc(Oc2ccccc2)cc1)C(=O)OCC)C(=O)OCc1ccccc1 | 6.4 ng | Active | –
CC(C)OC(=O)N(CCOc1ccc(Oc2ccccc2)cc1)[S+]([O-])N(CCOc1ccc(Oc2ccccc2)cc1)C(=O)OC(C)C | 20 ng | – | –
CCOC(=O)N(CCOc1ccc(Oc2ccccc2)cc1)[S+]([O-])N(CCOc1ccc(Oc2ccccc2)cc1)C(=O)OCC | 2.2 ng | Active | Activity [12]: 16%; Activity [13]: 19%; Activity [14]: 31%; Activity [15]: 36%; Activity [16]: 33%; Activity [17]: 47%
CCOC(=O)N(CCOc1ccc(Oc2ccc(Cl)cc2)cc1)SN(CCOc1ccc(Oc2ccc(Cl)cc2)cc1)C(=O)OCC | 26 ng | – | –
CCOC(=O)N(CCOc1ccc(Oc2ccccc2)cc1)S(=O)(=O)N(CCOc1ccc(Oc2ccccc2)cc1)C(=O)OCC | >100 ng | – | –
CC(C)OC(=O)N(CCOc1ccc(Oc2ccccc2)cc1)SN(CCOc1ccc(Oc2ccccc2)cc1)C(=O)OC(C)C | 22 ng | – | –
CCCCCCCCOC(=O)N(C)SN(CCOc1ccc(Oc2ccccc2)cc1)C(=O)OCC | 3.4 ng | – | Ratio [4]: 6
CCOC(=O)N(CCOc1ccc(Oc2ccc(Cl)cc2)cc1)[S+]([O-])N(CCOc1ccc(Oc2ccc(Cl)cc2)cc1)C(=O)OCC | 9 ng | – | –
